Results as given in patent US20250114368A1, “COMPOSITIONS AND METHODS RELATING TO PEDIATRIC NEUROMUSCULAR DISEASES AND NEUROGENERATIVE DISORDERS” (Ann and Robert H. Lurie Children's Hospital of Chicago, priority 2023, published 2025).
Entries after “also recorded” stand apart in the source; their conditions may differ.

Experiments:
[1] = test system: SMA motor neurons; assay: TUNEL staining of degenerating primary spinal motor neurons cultured from Δ7 SMA mice; type: cell-based, mouse; conditions: 300 nM applied at 3 DIV, assayed on 6 DIV
Excerpt: FIGS. 4A-4D: Mitigating aberrant Cdk5 activation ameliorates the degeneration of motor neurons from SMA mice. (A-B) Primary spinal motor neurons from SMA mice cultured 6 days in vitro (6 DIV) were stained by antibodies recognizing motor neuron marker Isl1 (magenta in A, B) and pan-neuronal marker TuJ1 (green in A). DAPI nuclear staining marks all cells in the culture. (C) Western blot analysis of Cdk5 knockdown in motor neurons treated with shRNA. […] Motor neurons were infected with lentivirus on 4 DIV and cultured for another 3 days before Western blot analysis. Two examples of Cdk5 shRNA knockdown were shown, with the expression of GAPDH as loading control. (D) Quantification of TUNEL+ degenerating motor neurons from WT and SMA mice. […]
Human SMA iPSC and Mouse Motor Neuron Culture. […] Cell death was detected by the in situ cell death detection TMR red TUNEL (Terminal Transferase dUTP Nick End Labeling) kit. […]
Mitigating Aberrant Cdk5 Activation Reduces the Degeneration of SMA Mouse Motor Neurons. Experiments were conducted during development of embodiments herein to determine whether reducing aberrant Cdk5 activation in SMA conditions serve to ameliorate motor neuron degeneration; the degeneration of motor neurons cultured from Δ7 SMA mice and control mice by TUNEL staining was monitored. […]

[2] = test system: human SMA iPSC-derived motor neurons; assay: Degeneration of human SMA iPSC-derived motor neurons (TuJ1 and Isl1-positive motor neurons as percentage of DAPI positive cells); type: cell-based; conditions: week 3 to week 6 in culture
Excerpt: FIGS. 8A-8M: Inhibition of Cdk5 signaling pathway decreases the degeneration of human SMA iPSC-derived motor neurons. (A-L) Immunostaining of human iPSC-derived motor neurons with antibodies recognizing neuronal marker TuJ1 (green in A-L), motor neuron marker Isl1 (red in A-L), and nucleus marker DAPI (blue in A-L). […] (M) Quantification of TuJ1 and Isl1-positive motor neurons as a percentage of all DAPI positive cells in a human iPSC model of SMA treated with inhibitors of Cdk5 signaling. […] Data are from four independent experiments and are mean±SEM. ** P<0.01, *** p<0.001, **** P<0.0001, Student's t test.
(§1) Human SMA iPSC and Mouse Motor Neuron Culture. Human iPSCs were generated and differentiated as described in the Examples. Briefly, primary fibroblasts were isolated from de-identified type I SMA patients and their unaffected relatives, infected with lentiviral constructs expressing OCT4, SOX2, NANOG, and LIN28 or episomally expressed reprogramming plasmids to generate iPSCs. Retinoic acid, sonic hedgehog, cAMP, ascorbic acid, brain-derived neurotrophic factor (BDNF) and glial cell line-derived neurotrophic factor (GDNF) were used to induce iPSC spheres to differentiate into motor neurons. […] Cell death was detected by the in situ cell death detection TMR red TUNEL (Terminal Transferase dUTP Nick End Labeling) kit. […]

[3] = test system: WT motor neuron; assay: Dosage effect of BML259 on primary mouse motor neurons: toxic effect (cell morphology and viability, bright field microscope); type: cell-based; conditions: two days
Excerpt: (§2) Human SMA iPSC and Mouse Motor Neuron Culture. Human iPSCs were generated and differentiated as described in the Examples. Briefly, primary fibroblasts were isolated from de-identified type I SMA patients and their unaffected relatives, infected with lentiviral constructs expressing OCT4, SOX2, NANOG, and LIN28 or episomally expressed reprogramming plasmids to generate iPSCs. Retinoic acid, sonic hedgehog, cAMP, ascorbic acid, brain-derived neurotrophic factor (BDNF) and glial cell line-derived neurotrophic factor (GDNF) were used to induce iPSC spheres to differentiate into motor neurons. Primary neurons from mouse spinal cords were cultured in Neurobasal (Life Technologies) supplemented with B27 (Life Technologies) as described. Briefly, spinal cords from E12.5 mouse embryos were dissected out and dissociated with 0.25% trypsin. After enriching motor neurons with Optiprep density gradient centrifugation and BSA cushion, cells were seeded on glass cover slips coated with 20 μg/ml Poly-L-Lysine (PLL) (Sigma) and 8 μg/ml Laminin (Sigma), and grown in the presence of […] (PeproTech). Cell death was detected by the in situ cell death detection TMR red TUNEL (Terminal Transferase dUTP Nick End Labeling) kit. Cdk5 inhibitor BML259 (300 nM) (Cayman Chemical) and calpain inhibitor Calpeptin (10 μM) (Tocris Bioscience) were applied from week 3 to 6 into iPSC motor neuron medium to inhibit Cdk5 signaling.
(§3) Different concentrations of Cdk5 inhibitor BML259 were applied on primary motor neurons from wild type and SMA mice. After two days, treated and untreated cells were compared to identify potential toxic effects of causing additional cell death by checking cell morphology and viability using a bright field microscope.

[4] = test system: SMA motor neuron; assay: as above; type: cell-based; conditions: two days
Excerpt: as §2, §3

[5] = test system: SMA iPSC motor neurons; assay: iPSC motor neuron degeneration measured by TUNEL; type: cell-based, human; conditions: 300 nM
Description: (§4) Calpeptin (10 μM) (A) was used to inhibit calpain activity, and 300 nM BML259 (B) was used to inhibit Cdk5 activity in control and SMA iPSC motor neurons. Data are from four independent experiments and are mean±SEM. ** p<0.01, *** p<0.001, Student's t test. […] Levels of different mRNA in each sample are calculated as relative to gapdh mRNA. The level of gapdh mRNA is presented as relative to the average of four samples. The measurement of each sample was repeated three times and four sets of mice were used. Results are mean±SEM. ** p<0.01, Student's t test.
as §1

[6] = test system: SMA iPSC motor neurons; assay: iPSC motor neuron degeneration measured by choline acetyltransferase (ChAT) staining; type: cell-based, human; conditions: 10 μM
Description: as §4, §1

[7] = test system: SMA non-integrating iPSC-derived motor neurons; assay: Motor neuron degeneration in non-integrating iPSC SMA model (Isl1+ and TuJ1+ motor neurons as percentage of DAPI-positive cells); type: cell-based, human; conditions: 10 μM
Excerpt: FIGS. 9A-C: (A) The increase of Cdk5 kinase activity in E18.5 SMA mouse spinal cord is not significant. Endogenous Cdk5 was immunoprecipitated from spinal cord lysates of E18.5 WT and SMA mice and measured kinase activity of phosphorylating Histone H1 with ^32P-γ-ATP. The same levels of Cdk5 and purified Histone H1 used in kinase assay reactions were monitored by Western blotting. Data are mean±SEM, Student's t test (n=12, P=0.0875). […] Endogenous Cdk5 was immunoprecipitated from motor neurons differentiated from WT and SMA non-integrating iPSCs. Kinase activities were quantified by the phosphorylation of Histone H1 with ^32P-γ-ATP. The same levels of Cdk5 and Histone H1 were monitored by Western blot. Data are mean±SEM, Student's t test (n=12, P<0.0001). […] Calpain inhibitor Calpeptin (10 μM) was applied to WT and SMA non-integrating iPSC-derived motor neurons. The number of Isl1+ and TuJ1+motor neurons as a percentage of all DAPI-positive cells was quantified from 1490 motor neurons in four independent experiments and are mean±SEM. ** p=0.0045, Student's t test.
Human SMA iPSC and Mouse Motor Neuron Culture. Human iPSCs were generated and differentiated as described in the Examples. […] Cell death was detected by the in situ cell death detection TMR red TUNEL (Terminal Transferase dUTP Nick End Labeling) kit. […]

| iPSC motor neuron degeneration by ChAT staining [6] | SMILES | TUNEL+ degenerating motor neurons from SMA mice [1] | Degeneration of motor neurons (TuJ1 and Isl1-positive, % of DAPI positive cells) in human SMA iPSC culture ([2]; 300 nM) | Toxic Effect on WT motor neuron ([3]; 50 nM) | Toxic Effect on WT motor neuron ([3]; 150 nM) | Toxic Effect on WT motor neuron ([3]; 300 nM) | Toxic Effect on WT motor neuron ([3]; 450 nM) | Toxic Effect on WT motor neuron ([3]; 600 nM) | Toxic Effect on SMA motor neuron ([4]; 50 nM) | Toxic Effect on SMA motor neuron ([4]; 150 nM) | Toxic Effect on SMA motor neuron ([4]; 300 nM) | Toxic Effect on SMA motor neuron ([4]; 450 nM) | Toxic Effect on SMA motor neuron ([4]; 600 nM) | iPSC motor neuron degeneration by TUNEL [5] | Degeneration of motor neurons (TuJ1 and Isl1-positive, % of DAPI positive cells) in human SMA iPSC culture ([2]; 10 μM) | Motor neuron degeneration in non-integrating iPSC SMA model [7] |
| --- | --- | --- | --- | --- | --- | --- | --- | --- | --- | --- | --- | --- | --- | --- | --- | --- |
|  | CC(C)c1cnc(NC(=O)Cc2ccccc2)s1 [BML259, N-(5-isopropyl-thiazol-2-yl)phenylacetamide] | significantly reduced the degeneration of SMA motor neurons | alleviated the degeneration of Isl1-positive motor neurons; also recorded: significantly reduces the degeneration of motor neurons | no | no | no | weak | strong | no | no | no | strong | very strong | reduces iPSC motor neuron degeneration |  |  |
| reduces iPSC motor neuron degeneration | CCCC[C@@H](C=O)NC(=O)[C@H](CC(C)C)NC(=O)OCc1ccccc1 [Calpeptin] |  |  |  |  |  |  |  |  |  |  |  |  |  | alleviated the degeneration of Isl1-positive motor neurons; also recorded: significantly reduces the degeneration of motor neurons | significantly reduces motor neuron degeneration |
